The values that follow come from patent EP0332387B1, “Triazole derivatives, their preparation and their use as fungicides” (Sankyo Company Limited, priority 1988, dated 1989).

Type in all cases: in vivo
For one assay, the system named is Puccinia recondita. In words: Curative activity against leaf rust of wheat (Experiment 6). As to conditions: wheat seedlings (variety Norin No 61), sprayed after inoculation at 3 ppm (30 ml/3 pots), 10 days; diseased area on the first leaf. On the procedure:
Wheat seedlings (variety Norin No 61) at the first leaf stage were inoculated with the fungus, Puccinia recondita, by spraying them with a spore suspension of the fungus. They were then kept in a moist chamber for 24 hours at 20 - 22 °C, after which they were moved to a greenhouse at 15 - 20 °C. […] The seedlings were then continuously kept in the greenhouse for 10 days. The disease controlling index was given on the basis of diseased area on the first leaf.

Assay [1] concerns Erysiphe graminis f.sp. hordei. In words: Curative activity against powdery mildew of barley (Experiment 7). The settings on record: barley seedlings (variety Sekishinriki), sprayed one day after inoculation at 3 ppm (30 ml/3 pots), further 10 days; diseased area on the first leaf. The method, then:
Barley seedlings (variety […]) at the first leaf stage were inoculated with conidia of Erysiphe graminis f.sp. hordei and kept in a greenhouse at 15 - 20°C. After one day, the seedlings were sprayed with an aqueous suspension of the test compound at a concentration of 3 ppm (30 ml/3 pots), and they continued to be kept in the greenhouse at that temperature for a further 10 days. The disease controlling index was given on the basis of the diseased area on the first leaf.

The subject of assay [2] is Rhizoctonia solani. In words: Preventive activity against sheath blight of rice plants (Experiment 2). Also noted: key: 0 = disease as untreated, 5 = no disease (complete control). The settings on record: rice seedlings (variety Nihonbare), sprayed at 100 ppm (30 ml/3 pots) 24 hours before inoculation, 5 days; height of the lesions. The method, then: Rice seedlings (variety Nihonbare) at the 4 - 5 leaf stage were sprayed with an aqueous suspension of the test compound at a concentration of 100 ppm (30 ml/3 pots). The seedlings were then kept for 24 hours at room temperature, after which they were inoculated with the fungus, Rhizoctonia solani, by placing 4 - 5 oat grains on which the fungus had previously been cultured around the base of each seedling. The seedlings were then kept in a moist chamber for 5 days at 25 - 27 °C. The disease controlling index was given on the basis of the height of the lesions formed on the rice seedlings.
Except in Table 12G, the compounds tested have the formula (1-1), in which Ar represents the group shown at the beginning of each part of the Table and R^1, R^2, X and Y are as defined in the Table.
(§1) The disease controlling index shown in the foregoing Tables 11 to 19 is indicated by the following codes: • 5--no disease (complete control) • 4--disease rate is less than 10% of the untreated plant • 3--disease rate is 10% - 30% of the untreated plant • 2--disease rate is 30% - 50% of the untreated plant • 1--disease rate is 50% - 70% of the untreated plant • 0--disease rate is almost same as the untreated plant.

The subject of another assay is Venturia inaequalis. The assay is described as follows: Preventive activity against apple scab (Experiment 9). The settings on record: for Index (disease controlling index): apple seedlings sprayed at 300 ppm, inoculated after 24 hours, 3 days moist chamber then 10 days greenhouse, diseased area on third and fourth leaves. On the procedure:
Apple seedlings at the 3 - 4 leaf stage were sprayed with an aqueous suspension of the test compound at a concentration of 300 ppm (30 ml/3 pots). The seedlings were then kept for 24 hours at room temperature, after which they were inoculated with the fungus, Venturia inaequalis, by spraying a spore suspension of the fungus over the seedlings. After inoculation, the seedlings were kept in a moist chamber for 3 days at 20 - 22 °C and then moved to a greenhouse at 20 - 22°C for 10 days. The disease controlling index was given on the basis of the diseased area on the third and fourth leaves.

A further assay relates to Sphaerotheca fuliginea. The assay is described as follows: Preventive activity against powdery mildew of cucumber (Experiment 8). As to conditions: cucumber seedlings sprayed at 300 ppm, inoculated after 24 hours, evaluated after 7 days in greenhouse; diseased area on third and fourth leaves. On the procedure:
Cucumber seedlings (variety Sagamihanpaku) at the 3 - 4 leaf stage were sprayed with an aqueous suspension of the test compound at a concentration of 300 ppm (30 ml/3 pots). The seedlings were then kept for 24 hours at room temperature, after which they were inoculated with conidida of Sphaerotheca fuliginea. After keeping the seedlings in a greenhouse for 7 days, the disease controlling index was evaluated on the basis of the diseased area on the third and fourth leaves.

In a further assay the test system is Gibberella Fujikuroi. In words: Activity against bakanae disease of rice plants by seed soaking (Experiment 5). Further details: key: 0 = disease as untreated, 5 = no disease (complete control). As to conditions: infected rice seeds (variety Tanginbozu) immersed 3 days in aqueous suspension (concentration not given), 3 weeks; number of diseased seedlings. The method, then:
Ten grams of rice seeds (variety Tanginbozu), infected with Gibberella Fujikuroi, were immersed in 20 ml of an aqueous suspension of the test compound for 3 days. At the end of this time, the treated seeds were densely sown in soil in pots, and the pots were placed in a greenhouse at 20 - 30 °C for 3 weeks. The disease controlling index was given on the basis of the number of diseased seedlings.
(§2) The compounds tested have the formula (1-1), in which Ar represents the group shown at the beginning of each part of the Table and R^1, R^2, X and Y are as defined in the Table.
as §1

Another assay deals with Pyricularia oryzae. As to conditions: rice seedlings (variety Sachikaze), sprayed 24 hours after inoculation at 10 ppm (30 ml/3 pots), further 6 days; number of lesions on the upper two leaves.
The test system of assay [3] is Rhizoctonia solani. In words: Curative activity against sheath blight of rice plants (Experiment 3). Further details: key: 0 = disease as untreated, 5 = no disease (complete control). The settings on record: rice seedlings (variety Nihonbare), sprayed 24 hours after inoculation at 10 ppm (30 ml/3 pots), further 5 days; height of the lesions. On the procedure:
Rice seedlings (variety Nihonbare) at the 4 - 5 leaf stage were inoculated with the fungus, Rhizoctonia solani, by placing 4 - 5 oat grains on which the fungus had previously been cultured around the base of each rice seedling and keeping them in a moist chamber at 25 - 27 °C. After 24 hours, the rice seedlings were sprayed with an aqueous suspension of the test compound at a concentration of 10 ppm (30 ml/3 pots) and they then continued to be kept in the moist chamber for a further 5 days. The disease controlling index was given on the basis of the height of the lesions formed on the rice seedlings.
as §2, §1

Assay [4] has as its system Rhizoctonia solani. The assay is described as follows: Preventive activity against sheath blight of rice plants by submerged application (Experiment 4). The settings on record: rice seedlings (variety Nihonbare), applied to the water in the pots, 100 g per 10 ares, inoculated after 7 days, 5 days; height of the lesions.
Excerpt: Rice seedlings (variety Nihonbare) at the 4 - 5 leaf stage grown in pots were flooded to a depth of 1 cm with water. The test compound was then applied to the water in the pots in an amount corresponding to 100 g per 10 ares. After keeping the seedlings in a greenhouse for 7 days, the water was drained from the pots and the seedlings were inoculated with the fungus, Rhizoctonia solani, by placing 4 - 5 oat grains on which the fungus had previously been cultured around the base of each seedling. The seedlings were then kept in a moist chamber for 5 days at 25 - 27 °C. The disease controlling index was given on the basis of the height of the lesions formed on the rice seedlings.
Except for Table 14F, the compounds tested have the formula (1-1), in which Ar represents the group shown at the beginning of each part of the Table and R^1, R^2, X and Y are as defined in the Table.
as §1

Structures are written as SMILES.

As for `C[C@@H](NC(=O)c1ccc(F)cc1)[C@](O)(Cn1cncn1)c1ccc(Cl)cc1Cl` (relative stereo) [Example 4, (2R*, 3R*)-2-(2,4-Dichlorophenyl)-3-(4-fluorobenzoylamino)-1-(1 H-1 ,2,4-triazol-1-yl)-2-butanol], the results for the disease controlling index (in the assay with Puccinia recondita; in [1]; with Rhizoctonia solani [2]) were 5, 5 and 4 (disease rate is less than 10% of the untreated plant), respectively. The “Index (disease controlling index)” value in the assay with Venturia inaequalis was 5.

Turning to `C[C@@H](NC(=O)c1ccc(Cl)cc1Cl)[C@](O)(Cn1cncn1)c1ccc(Cl)cc1Cl` (relative stereo) [Example 11, (2R*, 3R*)-3-(2,4-Dichlorobenzoylamino)-2-(2,4-dichlorophenyl)-1-(1H-1,2,4-triazol-1-yl)-2-butanol], the “Index (disease controlling index)” value in the assay on Sphaerotheca fuliginea and in the assay on Venturia inaequalis was 5 in each case. The disease controlling index in the assay with Rhizoctonia solani [2] and in the assay with Gibberella Fujikuroi was 4 (disease rate is less than 10% of the untreated plant) throughout.

Consider `C[C@@H](NC(=O)c1ccc(C(F)(F)F)cc1)[C@](O)(Cn1cncn1)c1ccc(Cl)cc1Cl` (relative stereo) [Example 12, (2R*, 3R*)-2-(2,4-Dichlorophenyl)-1-(1H-1,2,4-triazol-1-yl)-3-(4-trifluoromethylbenzoylamino)-2-butanol], for which the “Index (disease controlling index)” value with Sphaerotheca fuliginea and with Venturia inaequalis was 5 throughout. For the same compound, the disease controlling index in the assay with Pyricularia oryzae is 5; with Puccinia recondita, 5; in [1], 5; in the assay on Rhizoctonia solani [2], 5; in the assay on Rhizoctonia solani [3], 5; in the assay with Gibberella Fujikuroi it was 4 (disease rate is less than 10% of the untreated plant).

As to `C[C@@H](NC(=O)c1ccc(F)cc1)[C@](O)(Cn1cncn1)c1ccc(F)cc1F` (relative stereo) [Example 15, (2R*, 3R*)-2-(2,4-Difluorophenyl)-3-(4-fluorobenzoylamino)-1-(1H-1,2,4-triazol-1-yl)-2-butanol], the “Index (disease controlling index)” value in the assay with Sphaerotheca fuliginea is 5. Besides, the disease controlling index is 5 in the assay with Puccinia recondita, 5 in assay [1] and 4 (disease rate is less than 10% of the untreated plant) with Gibberella Fujikuroi.

Take `C[C@@H](NC(=O)c1ccc(Cl)cc1)[C@](O)(Cn1cncn1)c1ccc(F)cc1F` (relative stereo) [Example 16, (2R*, 3R*)-3-(4-Chlorobenzoylamino)-2-(2,4-difluorophenyl)-1-(1 H-1 ,2,4-triazol-1-yl)-2-butanol]: the “Index (disease controlling index)” value with Sphaerotheca fuliginea came to 5. The disease controlling index was 5 in the assay with Pyricularia oryzae; 5 in the assay with Puccinia recondita; 5 in assay [1]; 5 in the assay on Rhizoctonia solani [2]; 5 in the assay on Rhizoctonia solani [3]; 5 in the assay with Venturia inaequalis (apple seedlings, sprayed at 300 ppm (30 ml/3 pots) 24 hours before inoculation, diseased area on the third and fourth leaves). Moreover, in the assay on Gibberella Fujikuroi, the disease controlling index is given as 4 (disease rate is less than 10% of the untreated plant).

In the assay with Gibberella Fujikuroi, `C[C@@H](N=[N+]=[N-])[C@](O)(Cn1cncn1)c1ccc(Cl)cc1` (relative stereo) [Example 63, (2R*, 3R*)-3-Azido-2-(4-chlorophenyl)-1-(1H-1,2,4-triazol-1-yl)-2-butanol] showed a disease controlling index of 5.

As for `C[C@@H](CN=[N+]=[N-])[C@](O)(Cn1cncn1)c1ccc(Cl)cc1Cl` (relative stereo) [Example 90, (2R*, 3S*)-4-Azido-2-(2,4-dichlorophenyl)-3-methyl-1-(1H-1,2,4-triazol-1-yl)-2-butanol], the disease controlling index in the assay with Pyricularia oryzae, in the assay on Rhizoctonia solani [4], with Rhizoctonia solani [2] and in the assay with Gibberella Fujikuroi was 5 throughout.

On to `C[C@@H](N1C(=O)c2ccc(Cl)cc2C1=O)[C@](O)(Cn1cncn1)c1ccc(F)cc1F` (relative stereo) [Example 135, (2R*, 3R*)-2-(2,4-Difluorophenyl)-3-(4-chlorophthalimido)-1-(1H-1,2,4-triazol-1-yl)-2-butanol], for which, in the assay on Sphaerotheca fuliginea, the “Index (disease controlling index)” value is recorded as 5. Moreover, the disease controlling index was 4 (disease rate is less than 10% of the untreated plant) with Pyricularia oryzae, 5 with Puccinia recondita, 5 in assay [1] and 4 (disease rate is less than 10% of the untreated plant) with Gibberella Fujikuroi.

On to `CC[C@@H](OC1CCCCO1)[C@](O)(Cn1cncn1)c1ccc(F)cc1F` (relative stereo) [Example 202, (2R^*, 3R*)-2-(2,4-Difluorophenyl)-3-tetrahydropyranyloxy)-1-(1H-1,2,4-triazol-1-yl)-2-pentanol], for which the disease controlling index was 4 (disease rate is less than 10% of the untreated plant) with Pyricularia oryzae; 5 in the assay with Puccinia recondita; 5 in assay [1]; 4 (disease rate is less than 10% of the untreated plant) with Rhizoctonia solani [2]; 4 (disease rate is less than 10% of the untreated plant) in the assay on Rhizoctonia solani [3].

Regarding `C[C@@H](NC(=O)c1ccc(C(F)(F)F)cc1)[C@](O)(Cn1cncn1)c1ccc(Cl)cc1Cl` [Example 13, (2R, 3R)-2-(2,4-Dichlorophenyl)-3-(4-trifluoromethylbenzoylamino)-1-(1H-1,2,4-triazol-1-yl)-2-butanol], the “Index (disease controlling index)” value with Sphaerotheca fuliginea worked out at 5. Moreover, the disease controlling index in the assay with Pyricularia oryzae is on record as 5; in the assay on Puccinia recondita, 5; in assay [1] it was 5; with Rhizoctonia solani [2], 4 (disease rate is less than 10% of the untreated plant); with Gibberella Fujikuroi, 5.
